Values quoted from earlier work, collected in patent publication US20110104272A1 (DEPOMED, INC., priority 2009, published 2011).

solubility in water (in words)	SMILES
poorly soluble in water	CC(=O)Nc1ccc(O)cc1 [Acetaminophen, N-(4-hydroxyphenyl)acetamine]
highly soluble in water	CNC[C@H](O)c1cccc(O)c1 [Phenylephrine, (R)-3-[-1-hydroxy-2-(methylamino)ethyl]phenol]
